# Measured values as given in US12404304B1, “Telomerase reverse transcriptase (TERT) expression enhancing compounds and methods for using the same” (Sierra Sciences, LLC, priority 2007, dated 2025).
# Where two headings read alike, the source gives them in different places.
# Tests used:
# [1] = test system: human TERT expression (hTERT mRNA); test: Quantitative real-time RT-PCR of hTERT mRNA expression (Ct, transcripts) in compound-treated cells; format: cell-based
# Summary of the method: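 Read-out is cycle threshold, the cycle at which probe fluorescence released by Taq 5′-nuclease activity crosses a set level; Ct falls as hTERT mRNA rises. cDNA of treated and untreated cells was compared, with starting transcripts quantified against a known-cDNA standard curve.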
# [2] = test system: viable cells in culture; test: Cell viability assay (CellTiter-Glo Luminescent Cell Viability Assay, ATP quantitation, percent of vehicle control)
SMILES,Average Number of hTERT Transcripts [1],Average Cell Viability after 24 Hours (% DMSO) [2] [% DMSO],Average Number of hTERT Transcripts ([1]; quantitative real-time RT-PCR)
CC(C)c1cccc(C(C)C)c1NC(=O)c1ccc(OCC(=O)OC2CCCCC2)cc1 [compound 1538],10.53,74.17,–
COc1ccc(NC(=S)NCc2ccco2)c(OC)c1 [compound 1541],3.41,104.75,–
CCc1ccc(S(=O)(=O)N(C(=O)c2ccccc2)c2ccc3oc(C)c(C(C)=O)c3c2)cc1 [compound 1236],–,86.61,5.24
O=C(O)c1ccc(NC(=S)NC(=O)c2ccccc2I)cc1 [compound 1384],7.88,84.52,–
COC(=O)COc1ccc(NC(=O)c2ccccc2I)cc1 [compound 1536],7.34,65.12,–
Cc1cc(C)c2c3c1C1C=CCC1CN3C(C(=O)O)C1CC=CC21 (centres unmarked) [compound 1460],46.47,89.11,–
CC1CCc2c(sc(NC(=O)c3cccnc3)c2C(=O)Nc2cccc(Cl)c2)C1 (centres unmarked) [compound 1315],–,58.86,26.20
c1ccc(-c2nc3cc(Oc4ccc5[nH]c(-c6ccccn6)nc5c4)ccc3[nH]2)nc1 [compound 1476],25.18,86.51,–
O=C(Nc1nc(-c2ccccn2)cs1)c1nc2ccccc2s1 [compound 1201],–,74.59,49.55
O=C(NCCCn1ccnc1)c1cc(-c2cccs2)on1 [compound 1186],–,94.79,367.36
Brc1cccc(OCCCN2CCCCC2)c1 [compound 1380],5.98,104.34,–
COC(=O)COc1ccc(NC(=O)c2cccc(C)c2)cc1 [compound 1537],9.58,67.92,–
COc1ccc(S(=O)(=O)N(CC(=O)NC2CC3CCC2C3)c2ccccc2)cc1OC (centres unmarked) [compound 1421],6.96,104.42,–
O=C(NCCOc1ccccc1)c1cc(-c2cccs2)on1 [compound 1508],59.45,94.22,–
O=C(O)CCc1ccc(-c2ccc(Cl)cc2)o1 [compound 1467],108.02,79.50,–
O=C(N/N=C/C=C/c1ccccc1)c1ccccc1O [compound 1268],–,80.84,14.70
CCCCN1C(C(=O)c2ccccc2)=C(OC(=O)c2ccco2)c2ccccc2S1(=O)=O [compound 1216],–,42.91,5.19
CC(C)(C)c1ccc(C(=O)NC(=S)Nc2c(Cl)cc(Cl)cc2Cl)cc1 [compound 1411],10.04,92.66,–
CCOC(=O)COc1ccc2c(=O)c(-c3ccccc3Cl)c(C)oc2c1C [compound 1337],–,67.33,30.15
CCOC(=O)c1cc(NC(=O)N(C(C)C)C(C)C)c(C)nc1C [compound 1342],–,103.16,4.48
Cc1cccc(NC(=O)c2c(NC(=O)c3ccncc3)sc3c2CCC(C(C)(C)C)C3)c1 (centres unmarked) [compound 1233],–,61.61,41.94
O=C(N/N=C/c1ccccc1O)/C(=C\c1cccs1)NC(=O)c1ccccc1 [compound 1293],–,89.97,37.88
O=C(Nc1ccccc1OC(F)F)C(c1ccccc1)c1ccccc1 [compound 1436],8.14,82.48,–
CC(C)C(=O)NC(c1cccs1)c1cc(Cl)c2cccnc2c1O (centres unmarked) [compound 1090],–,27.89,29.08
Nc1ccc(OCCCc2ccccc2)cc1 [compound 1367],–,94.27,7.25
COc1ccc(-c2nnc(NC(=O)c3ccc(Cl)cc3)o2)cc1 [compound 1178],–,83.07,63.78
CCCCN1C(C(=O)c2ccccc2)=C(OC(=O)CC)c2ccccc2S1(=O)=O [compound 1215],–,52.19,7.76
CCCCNC(=O)Cc1c(C)nn(-c2nc(C)c(C)s2)c1O [compound 1124],–,87.04,34.96

SMILES,Average Number of hTERT Transcripts [1],Average Cell Viability after 24 Hours (% DMSO) [2] [% DMSO],Average Number of hTERT Transcripts ([1]; quantitative real-time RT-PCR)
Oc1c(CN2CCN(Cc3ccc4cccnc4c3O)CC2)ccc2cccnc12 [compound 1085],–,61.83,59.41
CC(C)CNC(=O)c1cc(-c2cccs2)on1 [compound 1189],–,83.26,73.15
O=C(O)CCC(=O)Nc1nc(-c2ccccn2)cs1 [compound 1490],3.91,111.59,–
COc1ccc(C(=O)NC(=S)Nc2ccc(Nc3ccccc3)cc2)cc1Br [compound 1417],5.13,92.17,–
O=C(NC(=S)Nc1cc(Cl)cc(Cl)c1)c1cccc(F)c1 [compound 1339],–,68.94,7.09
Cc1nn2c(=O)cc(-c3ccc(F)cc3)[nH]c2c1-c1ccccc1 [compound 1169],–,56.42,122.92
Cc1[nH]c2c(-c3ccc(Cl)cc3)cnn2c(=O)c1Cc1ccccc1 [compound 1146],–,63.23,57.84
O=C(CCc1ccccc1)NC(c1ccc([N+](=O)[O-])cc1)c1c(O)ccc2ccccc12 (centres unmarked) [compound 1393],23.22,62.25,–
Cc1ccc(-c2cc(C(=O)Nc3nc4ccc(S(C)(=O)=O)cc4s3)no2)cc1 [compound 1495],10.81,85.84,–
COC(=O)CSC1=C(C#N)C(c2ccco2)C(C(=O)Nc2ccc(Cl)cc2)=C(C)N1 (centres unmarked) [compound 1248],–,57.47,4.69
CC1=C(C(=O)OC2CCCC2)C(c2cccc(F)c2)C2=C(CC(c3cccs3)CC2=O)N1 (centres unmarked) [compound 1245],–,79.22,8.42
COc1ccc(-c2cc(O)n(-c3ccc([N+](=O)[O-])cc3)n2)cc1 [compound 1106],–,79.49,68.17
O=C(O)/C=C1\NC(=O)c2ccccc21 [compound 1354],–,96.80,14.31
CC(=O)Oc1ccc2c(=O)c(Oc3ccc4ccccc4c3)c(C(F)(F)F)oc2c1 [compound 1444],16.54,64.02,–
Cc1nn2c(=O)c(Cc3ccc(Br)cc3)c(C)[nH]c2c1-c1ccccc1 [compound 1165],–,55.73,132.12
COC(=O)c1ccc(COC(=O)CCS(=O)(=O)c2ccc(C)cc2)cc1 [compound 1549],8.60,99.71,–
C=CCN(CC=C)CCCOc1ccccc1 [compound 1550],12.90,96.87,–
O=C(OCc1ccc(Cl)cc1Cl)c1ccc(-c2nnc(-c3ccccc3)o2)cc1 [compound 1525],7.73,83.30,–
COC(=O)COc1ccc(S(=O)(=O)NCc2ccc(C)cc2)cc1 [compound 1551],16.60,40.32,–
Oc1c2c(nn1-c1nc3ccccc3[nH]1)CCCC2 [compound 1112],–,77.30,112.20
COc1ccc(OC)c(NC(=O)CSc2ccc(-c3ccccn3)nn2)c1 [compound 1254],–,66.42,47.45
S=C(Nc1ccc(Oc2ccccc2)cc1)Nc1ccc(Cl)cc1Cl [compound 1540],9.11,68.10,–
CN(C)CCCCNC(=O)c1cc(-c2cccs2)on1 [compound 1515],113.63,96.89,–
Cc1cc(=O)n2ncc(-c3ccc(Cl)cc3)c2[nH]1 [compound 1157],–,71.08,16.13
CC(C)CN1CC23C=CC(O2)C(C(=O)OCc2ccccc2)C3C1=O (centres unmarked) [compound 1347],–,118.20,12.01
O=C(N/N=C/c1cccc2cccnc12)c1ccc2c(c1)OCO2 [compound 1283],–,68.25,18.81
COc1ccc(OCCCN2CCN(c3ccccc3OC)CC2)cc1 [compound 1382],6.08,98.31,–
